Data set [1] has as its system chick aortic ring. The data set is described as follows: Chick aortic ring endothelial sprouting assay. Format: cell-based. The following applies: Matrigel. On the procedure:
Aortic arches were dissected from day-14 chick embryos, cut into cross-sectional fragments, and implanted in vitro in Matrigel using a modification of methods previously described (V. Muthukkaruppan, personal communication). When cultured in MCDB-131 medium supplemented with 5% fetal bovine serum, endothelial cells sprouted and vascular channel formation occurred within 24-48 hours.

The subject of data set [2] is liver regeneration. The data set is described as follows: Hepatectomy (liver regeneration) model. The following applies: for average liver size on post-operative day 8: 30 mg/kg q.o.d. s.c., controls regenerate to ~1.2 g. Format: in vivo, C57BL/6J mice. As to the method: Male C57BL/6J mice underwent a partial hepatectomy through a midline incision after general anesthesia with isoflourane^33. Free or conjugated TNP-470 (30 mg/kg) were given s.c. every other day for 8 days beginning on the day of surgery according to the scheme described in FIG. 4a. Alternatively, the doses given were 60 mg/kg the day of surgery and 4 days later or 120 mg/kg once on the day of the partial hepatectomy. The liver was harvested on the 8th day, weighed and analyzed by histology.
This non-neoplastic model is a relatively fast (8 days) in vivo angiogenesis-dependent process^33.

The test system of data set [3] is A2058 human melanoma. The data set is described as follows: Antitumor activity, SCID mice bearing s.c. A2058 human melanoma. It is filed as in vivo. The following applies: for T/C (mean tumor volume treated / untreated control) / survival: 30 mg/kg TNP-470 equivalent. The text has this: Each group consisted of 5 mice. […] 500 mm^3.
The subject of data set [4] is LLC. In words: Antitumor activity, C57BL/6J mice bearing s.c. LLC. The following applies: for survival: 30 mg/kg q.o.d. TNP-470 equivalent; for tumor growth inhibition: day 8, 30 mg/kg q.o.d., treatment started at 100 mm^3; for T/C: day 8, treatment started at 500 mm^3. The text has this:
Male C57BL/6J mice (˜8 weeks, ˜20 g) were inoculated with 5×10^6 viable LLC or A2058 melanoma cells s.c. The tumors were allowed to grow to a volume of approximately 100 mm^3. […] Each group consisted of 5 mice. Mice were euthanized when tumors reached or surpassed a size equivalent to 30% of their body weight. Animals were weighed daily and observed for signs of tumor progression and euthanized if their body weight decreased below 80% of their starting weight. Animals were monitored for general health, weight loss, and tumor progression. At termination, mice underwent post-mortem examination and tumors were dissected and weighed. […] The same dosing schedule was repeated with white SCID male mice (˜8 weeks, 20 g) inoculated with 5×10^6 viable A2058 human melanoma cells s.c. and treated as described above.

The subject of data set [5] is A2058 melanoma cells. The data set is described as follows: Serum-induced A2058 cell proliferation. As to the method: The dotted line represents the proliferation of bFGF-induced BCE or serum-induced A2058 cells (—) and the […] represents the BCE and A2058 cell proliferation in the absence of bFGF or serum, respectively ( - - - ).
BCE cells were obtained and grown as previously described^48. For the proliferation assay, cells were washed with PBS and dispersed in a 0.05% trypsin solution. […] The media was replaced with 0.25 ml of DMEM, 5% BCS and 1% GPS and the test sample applied. […] After 30 min of incubation, media and bFGF were added to obtain a final volume of 0.5 ml of DMEM, 5% BCS, 1% GPS and 1 ng/ml bFGF. Control cells were grown with or without bFGF. After 72 hr, cells were dispersed in trypsin, resuspended in Hematall (Fisher Scientific, Pittsburgh, Pa.), and counted in a Coulter counter.

Data set [6] can be described thus: in vivo. The settings on record: male, C57BL/6J, mouse, 30 mg/kg.
Data set [7] relates to LLC. The settings on record: at doses of 60 and 90 mg/kg/q.o.d., stated as known; cited from earlier work.
The test system of data set [8] is murine, human and metastatic tumors. The following applies: cited from earlier work.
A short description of data set [9]: Water solubility.
Data set [10] is described as follows: Early mouse development. The following applies: injected into 7 and 17 day-old mice.
Data set [11] in a line: Rotorod test and body weight, 5 weeks treatment. (In the rotarod test animals must keep their balance on a rotating rod.)
For data set [12] the following is noted: clinical pharmacokinetics, in words; cited from earlier work.
Data set [13] has as its target cathepsin B (Homo sapiens, UniProt P07858). The settings on record: incubation with cathepsin B, pH 5.5, 37° C.
Excerpt: These conditions imitate the lysosomal environment in endothelial cells where lysosomal enzymes, such as cathepsin B, are present.
The mark [14] stands for this setting: in mice, mostly 30 mg/kg subcutaneously every other day.
The mark [15] stands for this setting: 30 mg/kg q.o.d. s.c. for 5 weeks.

“And” between values parts separate entries of the source, which are not always exact repeats. Equal entries are not always repeated. “Also recorded” adds a separate entry of the source. Some results are limits rather than exact numbers.

The values below come from US6949584B2, “TNP-470 species, polymer conjugates and use thereof” (Children's Medical Center Corporation, priority 2002, dated 2005).

With `CO[C@@H]1[C@H](OC(=O)NC(=O)CCl)CC[C@]2(CO2)[C@H]1[C@@]1(C)O[C@@H]1CC=C(C)C` [TNP-470, O-(chloracetyl-carbamoyl) fumagillol], in [1], the “concentration that completely prevented outgrowth” value came out at 100 pg/mL; the “concentration that reduced the number and length of vascular sprouts” value was 50 pg/mL. Moreover, the “average liver size on post-operative day 8” value in data set [2] was determined as 0.7 g. In data set [2] (30 mg/kg/q.o.d s.c.), the “inhibition of liver regeneration” value is reported as “inhibited liver regeneration”. Further, in data set [2] (60 mg/kg every four days), the “inhibition of liver regeneration” value is listed as “did not inhibit liver regeneration”. Moreover, in data set [2] (single injection of 120 mg/kg on the day of hepatectomy, 120 mg/kg), the “inhibition of liver regeneration” value is “did not inhibit liver regeneration”. Besides, in [3], the “T/C (mean tumor volume treated / untreated control)” value is listed as 0.34 and the survival result was “increased survival”. Moreover, in data set [4], the survival result is “increased survival” and the tumor growth inhibition is listed as 67%. In addition, in data set [5] (72 h), the “concentration at which inhibition of serum-induced proliferation (cytostatic effect) begins” value was not below 10 ng/mL and the “doses with cytotoxic effect” value is recorded as “higher than 100 μg/ml”. For the same compound, the “potency on endothelial cells relative to tumor cells” value in [5] (BCE versus A2058 / tumor cells) is 4 logs and 3 logs. Also, the TNP-470 in serum result (after the 2 h time point) is listed as “no detectable”. The “free TNP-470 concentrations in tumor specimens” value (any sample time point) is recorded as “no detectable concentrations”. Besides, in data set [6], the concentration at 1 h is 0.9 ng/mL and the concentration at 2 h turned out to be 1.7 ng/mL. Besides, in data set [7], the “toxicity to the mice” value was “toxic”. In addition, in data set [8] (setting [14]), the “inhibition of growth of human tumors” value is “up to 100%” and the “inhibition of growth of metastatic tumors” value is “up to 100%”. In addition, the “inhibition of growth of murine tumors” value in data set [8] (mostly 30 mg/kg subcutaneously every other day) was “up to 91%”. The “body weight of animals receiving the drug” value in data set [8] (with few exceptions) is recorded as “weight loss or failure to gain weight”. In data set [9], the water solubility result is given as “not water-soluble”. Moreover, the “effect on normal development (weight gain) of newborn mice” value in [10] is given as “causes delay in newborn mice development; also recorded: inhibited growth”. Further, in data set [11] (setting [15]), the body weight entry was “lost weight” and the “time remaining on the rotating rod” value is on record as “significantly shorter times”. Further, in data set [11] (data not shown), the neurohistological alterations entry was “no visible neurohistological alterations”.

As for `COc1cccc2c1C(=O)c1c(O)c3c(c(O)c1C2=O)C[C@@](O)(C(=O)CO)C[C@@H]3O[C@H]1C[C@H](N)[C@H](O)[C@H](C)O1` [doxorubicin], the t1/2a entry in data set [12] is given as “a few minutes”.

Regarding “HPMA copolymer-Gly-Phe-Leu-Gly (SEQ ID NO: 1)-ethylenediamine-TNP-470 [HPMA copolymer-TNP-470]”, the “concentration that completely prevented outgrowth” value in data set [1] amounted to 100 pg/mL. Further, the “concentration that reduced the number and length of vascular sprouts” value in data set [1] stood at 50 pg/mL. Moreover, the “average liver size on post-operative day 8” value in [2] stood at 0.7 g. For the same compound, the “inhibition of liver regeneration” value in data set [2] (30 mg/kg/q.o.d s.c.) is on record as “inhibited liver regeneration”; in data set [2] (60 mg/kg every four days, listed as Conjugated TNP-470), “inhibited liver regeneration”; in data set [2] (60 mg/kg every four days, listed as HPMA copolymer-TNP-470 conjugate), “equivalent effect as the 30 mg/kg q.o.d. dosing schedule”; in [2] (single injection of 120 mg/kg on the day of hepatectomy, listed as Conjugated TNP-470, 120 mg/kg), “inhibited liver regeneration”; in data set [2] (single injection of 120 mg/kg on the day of hepatectomy, listed as HPMA copolymer-TNP-470 conjugate, 120 mg/kg), “equivalent effect as the 30 mg/kg q.o.d. dosing schedule”. In addition, in data set [3], the “T/C (mean tumor volume treated / untreated control)” value came to 0.12. Moreover, the survival entry in [3] and in data set [4] was “increased survival” each time. For the same compound, the “T/C values for the conjugate” value in data set [3] (summary statement in the conclusions, model not named) is 0.12-0.14. The T/C is 0.4 in data set [4] (30 mg/kg/q.o.d), 0.4 in data set [4] (60 mg/kg/q.o.d) and 0.24 in data set [4] (90 mg/kg/q.o.d). Further, the tumor growth inhibition in [4] is 86%. Also, the “time until TNP-470 release from the conjugate reached a plateau” value in data set [13] is on record as not above 5 h.
